Data taken from patent US5140040A, “1-aminomethyl-1,2,3,4-tetrahydronaphthalenes” (Abbott Laboratories, priority 1991, dated 1992).
Where a name gives a salt, the structure may show the parent alone.

Columns and labels:
serotonin uptake = assay: Biogenic amine uptake inhibition, rat brain synaptosomes, tritiated serotonin; assay type: biochemical, Sprague-Dawley derived rats; details: tritiated amine 0.1 μM, 37° C., 4 minutes
Excerpt: (§1) Sprague-Dawley derived rats of either sex, weighing about 180-250 g, were killed by decapitation. The brains were immediately removed, placed on a glass plate chilled over crushed ice and dissected according to a modification of the method of Glowinski and Iversen (J. Neurochem. 13, 655-669, 1966). First, the rhombencephalon was separated by transverse section and discarded. The remaining tissue was bisected by a midline sagittal cut. The hypothalamus was removed using the anterior and posterior reference points, respectively. The hippocampus was peeled away and discarded and the striata were exposed and removed. Frontal cortical tissue was dissected from remaining brain structures. The hypothalamus and striatum each weighed about 100 mg , the striata 50-75 mg, and the cortex weighed up to 800 mg. The tissues were placed in a cold Potter-Elvehjem glass homogenizer with 5 (cortex) or 10 (hypothalamus) and 20 (striatum) volumes of ice-cold 0.32M sucrose, pH 7.0 and homogenized by hand. The homogenate was centrifuged at 2500 rpm in a GLC centrifuge for 10 minutes in a refrigerated room. The supernatant fraction containing the synaptosomes was decanted, mixed thoroughly, and kept on crushed ice for use in the uptake studies.
(§2) Uptake studies were conducted according to the method of Synder and Coyle (J. PharmacoI. Exp. Ther. 165, 78-86, 1969) with minor modifications. Usually a 0.1 ml aliquot of the synaptosomal preparation was incubated in a mixture of 0.75 ml of modified Krebs-Ringer buffer, 0.05 ml of the drug being evaluated for uptake inhibition, and 0.1 ml of a 1 μM tritiated amine (norepinephrine, serotonin or dopamine) solution (final concentration 0.1 μM) for a total volume of 1 ml. The modified Krebs-Ringer bicarbonate buffer used in these studies contained 118 mM NaCl, 4 mM KCl, 1.3 mM CaCl2, 1.12 mM KH2 PO4, 1.2 mM MgSO4 and 24 mM NaHCO3, with the addition of 5 mM glucose, 0.15 mM disodium EDTA, 12.5 μM pargyline and 1 mM ascorbic acid. Uptake was initiated by the addition of the tritiated amine, and the mixture was incubated at 37° C. in a Dubnoff Metabolic Shaking Incubator for 4 minutes. Control incubations without the test drug were conducted at 37° C. to determine total uptake and non-specific binding at 0° C. to correct for the diffusion of the tritiated amine into the synaptosomes and/or binding. Filtration was used to terminate uptake and collect the synaptosomes. In the filtration technique the incubation mixture was diluted with 4 ml of ice-cold 0.9% NaCl and filtered through GF/B glass microfiber filters (Whatman) under gentle vacuum. The filters were subsequently washed four times with 5 ml of ice-cold 0.9% NaCl and transferred to glass scintillation vials. Soluene® ([…]) and IONIC FLUOR (Packard) scintillation fluid (3.5 ml) were added and the vials were placed in a mechanical shaker for 1 hour. All samples were cold and dark adapted and counted in a TriCarb® (Packarad) Model 460 Liquid Scintillation Spectrometer. Corrections were automatically made for quenching by the external standard method and for luminescence. All results (see Table 2) are based on total radioactivity.

dopamine uptake = assay: Biogenic amine uptake inhibition, rat brain synaptosomes, tritiated dopamine; assay type: biochemical, Sprague-Dawley derived rats; details: tritiated amine 0.1 μM, 37° C., 4 minutes
Excerpt: as §1, §2

norepinephrine uptake = assay: Biogenic amine uptake inhibition, rat brain synaptosomes, tritiated norepinephrine; assay type: biochemical, Sprague-Dawley derived rats; details: tritiated amine 0.1 μM, 37° C., 4 minutes, read-out: Biogenic Amine Uptake Inhibition IC50 Norephinephrine
Excerpt: as §1, §2

alpha-2-receptor = assay: Radioligand binding, alpha-2 adrenoceptor, rat cerebral cortices, [^3 H]-rauwolscine; details: for Ki: rat cerebral cortices, [^3 H]-rauwolscine; for alpha-2 - Selectivity Ki alpha-1/Ki alpha 2: ratio of Ki alpha-1 to Ki alpha-2
Procedure: (§3) The compounds were assessed for alpha-adrenergic receptor subtype selectivity by use of radioligand binding techniques as described previously (DeBernardis et.al. J. Med. Chem. 28, 1398 (1985)).

alpha-1-receptor = molecular target: T1, alpha-1-receptor (Rattus norvegicus, UniProt P15823); assay: Radioligand binding, alpha-1 adrenoceptor, rat liver homogenates, [^3 H]-prazosin
T1 construct: rat liver homogenates; from tissue; host or cells: rat liver homogenates
T1 sequence (P15823 1-515): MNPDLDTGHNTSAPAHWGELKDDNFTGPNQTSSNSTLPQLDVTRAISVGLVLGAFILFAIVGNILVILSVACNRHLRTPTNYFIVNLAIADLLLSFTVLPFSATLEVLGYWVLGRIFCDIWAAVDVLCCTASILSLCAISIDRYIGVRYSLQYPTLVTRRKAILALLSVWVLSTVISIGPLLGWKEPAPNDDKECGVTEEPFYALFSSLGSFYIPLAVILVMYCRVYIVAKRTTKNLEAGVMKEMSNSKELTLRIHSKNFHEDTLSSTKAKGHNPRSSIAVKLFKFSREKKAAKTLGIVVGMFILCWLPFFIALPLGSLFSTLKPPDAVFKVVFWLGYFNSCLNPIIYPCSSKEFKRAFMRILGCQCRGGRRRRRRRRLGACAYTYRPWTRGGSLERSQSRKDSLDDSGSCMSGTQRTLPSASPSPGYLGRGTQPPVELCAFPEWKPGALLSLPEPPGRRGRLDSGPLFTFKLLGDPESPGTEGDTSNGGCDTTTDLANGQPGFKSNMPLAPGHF
Procedure: as §3

intraocular pressure = assay: Effect of topically administered compounds on intraocular pressure of rabbits; assay type: in vivo, New Zealand rabbits; details: 0.3% soln., 0.1 ml topical
Procedure: The intraocular pressure lowering effects of the compounds were evaluated in unanesthetized male albino, New Zealand rabbits weighing 2.0 to 2.5 kg. The rabbits were placed in Plas Labs restraining devices for the duration of the experiment. Intraocular pressure (IOP) was measured with a Bausch and Lomb Applamatic Tonometer and recorded as the average of three individual readings at each time point in the experiment. Baseline IOP values were established at three time points separated by 30 minutes. Each compound or vehicle was applied topically to the cornea in a volume of 0.1 ml to one eye in each six rabbits. The contralateral eye was untreated. IOP was recorded at 5, 15, 30, 60 and 90 minutes after dosing.

## CCN(CCc1cccs1)CC1CCCc2cc(OC)ccc21 (stereo not shown) [Example 41, 1-((N-Ethylamino)methyl-N-(2-(2-thienyl)ethyl))-6-methoxy tetralin hydrochloride]
Serotonin uptake
  IC50: 2280 nM
Dopamine uptake
  IC50: 6030 nM
Norepinephrine uptake
  IC50: 200 nM
alpha-2-receptor
  Ki: 2.9 nM
  alpha-2 - Selectivity Ki alpha-1/Ki alpha 2: 326

## CN(C)c1ccc2c(c1)CCCC2CN1CCC(c2ccccc2)C1 (stereo not shown) [Example 188, 6-(N-N'-dimethylamino)-1-(3-phenylpyrrolidino-1-methyl)tetralin dihydrochloride]
alpha-1-receptor
  Ki: 118 nM
alpha-2-receptor
  Ki: 0.5 nM
  alpha-2 - Selectivity Ki alpha-1/Ki alpha 2: 236

## CCN(CCc1cccc(F)c1)CC1CCCc2c(OC)cccc21 (stereo not shown) [Example 72, 1-((N-Ethylamino)methyl-N-(2-(m-fluorophenyl)ethyl))-5-methoxy tetralin hydrochloride]
Serotonin uptake
  IC50: 466 nM
Dopamine uptake
  IC50: 6830 nM
Norepinephrine uptake
  IC50: 137 nM

## 8-Fluoro-5,6-methylenedioxy-1-(3-phenylpyrrolidino1-methyl) tetralin hydrochloride [Example 160]
Serotonin uptake
  IC50: 1840 nM
Dopamine uptake
  IC50: 2930 nM
Norepinephrine uptake
  IC50: 991 nM

## CCN(CCc1cccc(F)c1)CC1CCCc2c1ccc1c2OCO1 (stereo not shown) [Example 165, 1-((N-Ethylamino)methyl-N-(2 m-fluorophenethyl))-5,6-methylenedioxy tetralin hydrochloride]
Serotonin uptake
  IC50: 1240 nM
Dopamine uptake
  IC50: 6670 nM
Norepinephrine uptake
  IC50: 398 nM
alpha-2-receptor
  Ki: 3.5 nM
  alpha-2 - Selectivity Ki alpha-1/Ki alpha 2: 132

## COc1ccc2c(c1)CCCC2CN(C)CCc1cccs1 (stereo not shown) [Example 5, 1-((N-Methylamino)methyl-N-(2-(2-thienyl)ethyl))-6-methoxy tetralin methanesulfonate]
Serotonin uptake
  IC50: 5920 nM
Dopamine uptake
  IC50: 6520 nM
Norepinephrine uptake
  IC50: 1040 nM
alpha-2-receptor
  Ki: 0.8 nM
  alpha-2 - Selectivity Ki alpha-1/Ki alpha 2: 725

## 5-Methoxy-1-(3-phenylpyrrolidino-1-methyl) indane hydrochloride [Example 152]
alpha-1-receptor
  Ki: 51 nM
alpha-2-receptor
  Ki: 4.8 nM
  alpha-2 - Selectivity Ki alpha-1/Ki alpha 2: 11

## Fc1ccccc1C1CCN(CC2CCCc3c2ccc2c3OCO2)C1 (stereo not shown) [Example 176a, 5,6-Methylenedioxy-1-(3-(o-fluorophenyl)pyrrolidino-1-methyl) tetralin methanesulfonate]
Serotonin uptake
  IC50: 2830 nM
Dopamine uptake
  IC50: 7310 nM
Norepinephrine uptake
  IC50: 1560 nM
alpha-2-receptor
  Ki: 0.6 nM
  alpha-2 - Selectivity Ki alpha-1/Ki alpha 2: 132

## CCN(CCc1ccsc1)CC1CCCc2cc(OC)ccc21 (stereo not shown) [Example 44, 1-N-Ethylamino)methyl-N-(2-(3-thienyl)ethyl))-6-methoxy tetralin hydrochloride]
Serotonin uptake
  IC50: 3290 nM
Dopamine uptake
  IC50: 8640 nM
Norepinephrine uptake
  IC50: 357 nM
alpha-2-receptor
  Ki: 5.6 nM
  alpha-2 - Selectivity Ki alpha-1/Ki alpha 2: 105

## Cc1cc(O)c(O)c2c1C(CN(C)CCc1cccc(F)c1)CCC2 (stereo not shown) [Example 34, 1-(N-Methylamino)methyl-N-(2-(m-fluorophenyl)ethyl))-5,6-dihydroxy-8-methyltetralin hydrobromide]
Serotonin uptake
  IC50: 2200 nM
Dopamine uptake
  IC50: 9400 nM
Norepinephrine uptake
  IC50: 365 nM
alpha-2-receptor
  Ki: 2.6 nM
  alpha-2 - Selectivity Ki alpha-1/Ki alpha 2: 127

## CN(C)CCCN1c2ccccc2CCc2ccccc21 [Imipramine, reference compound]
Serotonin uptake
  IC50: 778 nM
Dopamine uptake
  IC50: 125000 nM
Norepinephrine uptake
  IC50: 346 nM

## c1ccc(C2CCN(CC3CCCc4c3ccc3c4OCO3)C2)cc1 (stereo not shown) [Example 143a, 5,6-Methylenedioxy-1-(3-phenylpyrrolidino-1-methyl) tetralin methanesulfonate]
Serotonin uptake
  IC50: 4030 nM
Dopamine uptake
  IC50: 8720 nM
Norepinephrine uptake
  IC50: 1100 nM
alpha-2-receptor
  Ki: 1.2 nM
  alpha-2 - Selectivity Ki alpha-1/Ki alpha 2: 43

## CN(CCc1cccc(F)c1)CC1CCCc2c1ccc1c2OCO1 (stereo not shown) [Example 166, 1-((N-Methylamino)methyl-N-(2-m-fluorophenethyl))-5,6-methylenedioxy tetralin methanesulfonate]
Serotonin uptake
  IC50: 400 nM
Dopamine uptake
  IC50: 8770 nM
Norepinephrine uptake
  IC50: 1520 nM
alpha-2-receptor
  Ki: 4.5 nM
  alpha-2 - Selectivity Ki alpha-1/Ki alpha 2: 134

## COc1cccc2c1CCCC2CN(C)CCc1cccs1 (stereo not shown) [Example 19, 1-((N-Methylamino)methyl-N-(2-(2-thienyl)ethyl))-5-methoxy tetralin methanesulfonate]
Serotonin uptake
  IC50: 411 nM
Dopamine uptake
  IC50: 6090 nM
Norepinephrine uptake
  IC50: 498 nM

## CN(CCc1cccs1)CC1CCCc2c1ccc1c2OCCO1 (stereo not shown) [Example 30, 1-((N-Methylamino)methyl-N-(2-(2-thienyl)ethyl))-5,6-ethylenedioxy tetralin hydrochloride]
Serotonin uptake
  IC50: 1340 nM
Dopamine uptake
  IC50: 8080 nM
Norepinephrine uptake
  IC50: 624 nM
alpha-2-receptor
  Ki: 4 nM
  alpha-2 - Selectivity Ki alpha-1/Ki alpha 2: 118

## CN(CCc1ccccc1)CC1CCCc2cc(O)ccc21 (stereo not shown) [Example 11, 1-((N-Methylamino)methyl-N-(2-phenylethyl))-6-hydroxy tetralin hydrobromide]
Serotonin uptake
  IC50: 7230 nM
Dopamine uptake
  IC50: 10100 nM
Norepinephrine uptake
  IC50: 1740 nM

## COc1ccc2c(c1)CCCC2CN(C)CCc1cccc(F)c1 (stereo not shown) [Example 6b, 1-((N-methylamino)methyl-N-(2-(m-fluorophenyl)ethyl))-6-methoxy tetralin hydrochloride]
Serotonin uptake
  IC50: 1950 nM
Dopamine uptake
  IC50: 10100 nM
Norepinephrine uptake
  IC50: 574 nM
alpha-2-receptor
  Ki: 5 nM
  alpha-2 - Selectivity Ki alpha-1/Ki alpha 2: 236

## CCN(CCc1cccs1)CC1CCCc2c(OC)cccc21 (stereo not shown) [Example 73, 1-((N-Ethylamino)methyl-N-(2-(2-thienyl)ethyl))-5-methoxy tetralin hydrochloride]
Serotonin uptake
  IC50: 840 nM
Dopamine uptake
  IC50: 8430 nM
Norepinephrine uptake
  IC50: 336 nM

## COc1cccc2c1CCCC2CN(C)CCc1cccc(F)c1 (stereo not shown) [Example 20c, 1-((N-methylamino)methyl-N-(2-(m-fluorophenyl)ethyl))-5-methoxytetralinmethanesulfonate]
Serotonin uptake
  IC50: 161 nM
Dopamine uptake
  IC50: 9170 nM
Norepinephrine uptake
  IC50: 1580 nM

## CN(CCc1cccc(F)c1)CC1CCCc2cc(O)ccc21 (stereo not shown) [Example 10, 1-((N-Methylamino)methyl-N-(2-(m-fluorophenyl)ethyl))6-hydroxy tetralin hydrochloride]
Intraocular pressure; 5 minutes
  % Change in Intraocular Pressure After Treatment Compared to Untreated Eye: -45%
Intraocular pressure; 15 minutes
  % Change in Intraocular Pressure After Treatment Compared to Untreated Eye: -31%
Intraocular pressure; 30 minutes
  % Change in Intraocular Pressure After Treatment Compared to Untreated Eye: -25%
Intraocular pressure; 60 minutes
  % Change in Intraocular Pressure After Treatment Compared to Untreated Eye: -36%
Intraocular pressure; 90 minutes
  % Change in Intraocular Pressure After Treatment Compared to Untreated Eye: -23%
